These results are taken from PubChem BioAssay (NCI).

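Cells were grown in 96-well plates and exposed to each compound for 48 hours at five concentrations; endpoints were interpolated linearly between bracketing concentrations, or set to the highest concentration if not reached. TGI marks complete inhibition of growth.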

Assay in all cases: NCI anticancer screen, dose series, 48 h
Assay [1] relates to UO-31 renal.
For assay [2], the system named is KM12 colon.
The subject of assay [3] is NCI-H226 lung.
The subject of assay [4] is SK-OV-3 ovarian.
Assay [5] has as its system T-47D breast.
For assay [6], the system named is RPMI-8226 leukemia.
Assay [7] concerns NCI-H460 lung.
The test system of assay [8] is SNB-19 CNS.
Assay [9] has as its system SK-MEL-2 melanoma.
In assay [10] the test system is OVCAR-8 ovarian.

Take `CN(C)P(=O)(Oc1occc1C(O)Cc1ccccc1)N(C)C` (stereo not given): the TGI in assay [1], in assay [2], in assay [3], in [4], in assay [5] and in assay [6] was above 100 µM each time. For the same compound, the TGI in assay [7], in [8], in [9] and in assay [10] was above 100 µM each time.
Take `Cc1ccc(S(=O)(=O)NC(=O)NNc2ccc(F)cc2)cc1`: the TGI in assay [1] was above 31.6 µM; in assay [2], above 100 µM; in assay [3], above 100 µM; in [4], above 100 µM; in assay [5], above 100 µM; in assay [6] it was above 58.2 µM. The TGI in [7], in assay [8], in [9] and in assay [10] was above 100 µM each time.
With `O=C(O)c1ccc2c(c1)CC1(C2)Cc2cc3c(cc2C1=O)CCC3` (stereo not given), the TGI in assay [1], in [2], in [3], in assay [4], in assay [5] and in assay [6] was above 100 µM in each case. Further, the TGI in assay [7], in assay [8], in assay [9] and in assay [10] was above 100 µM throughout.
`COc1ccc(N=Nc2c3c(c(O)c4ccccc24)CCC(C)(C)O3)cc1`: the TGI was 35.2 µM in assay [1]; 29.5 µM in assay [2]; above 100 µM in assay [3]; above 100 µM in assay [4]; 25.2 µM in [5]; 98.1 µM in assay [6]. For the same compound, the TGI in [7] was 29.8 µM; in assay [8], 50.4 µM; in [9] it was 40.3 µM; in [10] it was above 100 µM.
In the case of `Cc1cc2c(nn1)-c1ccccc1C2=O`, the TGI in assay [1], in assay [2], in assay [3], in assay [4], in assay [5] and in [6] was above 10 µM in each case. Also, the TGI in [7], in assay [8], in assay [9] and in assay [10] was above 10 µM throughout.
